Experimental findings from patent US6172079A, “5-substituted-3-oxadiazolyl-1,6-naphthyridin-2(1H)-one derivatives” (Dainippon Pharmaceutical Co., Ltd., priority 1997, dated 2001) are described below.

Test [1] relates to GABAA receptor complex (TBPS binding). Kind of test: TBPS Binding Assay. Details: species or system Wistar rats. The following applies: [35S]TBPS 0.4 nM, GABA 1 μM, rat cerebral cortex membrane, +% inverse agonistic, 0% antagonistic. The protocol:
The TBPS (t-butylbicyclophosphonothionate) binding assay and the preparation of the membrane specimen were done in a similar manner to the method of Biggio, G. et al. [cf. European Journal of Pharmacology, vol.
That is, to the cerebral cortex was added a 50-fold volume of an ice-cooled buffer (a 50 mM Tris-citrate buffer containing 100 mM sodium chloride, pH 7.4) and the mixture was homogenized at 0-4° C. and then centrifuged at 20,000 g for 20 minutes. The pellets thus obtained were once subjected to homogenization in a buffer and centrifugation by the same procedure as above and then kept in freezed state at -80° C. for more than 20 hours. On the test day, the freezed pellets were thawed and then subjected twice to the homogenization-centrifugation procedure as described above.
Subsequently, the filter was moved into a liquid scintillation vial and thereto was added a liquid scintillation cocktail (ACS-II, manufactured by Amersham, USA, 10 ml) and allowed to stand for a fixed period of time. […] Separately, the same procedures were repeated in the presence of Picrotoxin to determine the non-specific binding amount. The non-specific binding amount was deducted from the total binding amount to give the specific binding amount. The binding activity of the test compound was calculated by a variation rate, i.e., a rate of the specific binding amount of the test compound to the specific binding amount in control (using a solvent).

In the next test the target is benzodiazepine receptor. Kind of test: Benzodiazepine Receptor Binding Assay. The settings on record: read-out: BZP-receptor Binding IC50; [3H]-diazepam 1.5 nM; rat brain crude synaptosome membrane; 0° C., 20 min.

In the case of `Cc1nc(-c2cc3c(C)nccc3[nH]c2=O)no1` [Example 2], the “TBPS binding Variation Rate” value in test [1] was 53%.

For the molecule `Cc1nc(-c2cc3c(CC(C)C)nccc3[nH]c2=O)no1` [Example 3], the IC50 (commonly the concentration that inhibits the measured activity by half) on benzodiazepine receptor came to 3.58 nM. For the same molecule, the “TBPS binding Variation Rate” value in test [1] is given as 12%.

In the case of `Cc1nc(-c2cc3c(-c4cccc(Cl)c4)nccc3[nH]c2=O)no1` [Example 7], at benzodiazepine receptor, the IC50 is 2.39 nM. In addition, in test [1], the “TBPS binding Variation Rate” value was determined as 12%.

Turning to `Cc1nc(-c2cc3c(-c4ccc(Cl)cc4)nccc3[nH]c2=O)no1` [Example 8], the “TBPS binding Variation Rate” value in test [1] is 13%.

As for `CCc1nc(-c2cc3c(C)nccc3[nH]c2=O)no1` [Example 13], the “TBPS binding Variation Rate” value in test [1] is on record as 24%.

`CCc1nc(-c2cc3c(CC)nccc3[nH]c2=O)no1` [Example 14]: the IC50 at benzodiazepine receptor worked out at 9.45 nM. In addition, the “TBPS binding Variation Rate” value in test [1] is 38%.

For the molecule `CCc1nc(-c2cc3c(C(C)C)nccc3[nH]c2=O)no1` [Example 16], the IC50 at benzodiazepine receptor is 3.69 nM. Besides, in test [1], the “TBPS binding Variation Rate” value turned out to be 38%.

Consider `CCc1nc(-c2cc3c(C4CC4)nccc3[nH]c2=O)no1` [Example 17], for which, on benzodiazepine receptor, the IC50 was found to be 0.69 nM. Besides, the “TBPS binding Variation Rate” value in test [1] amounted to 25%.

`CCc1nc(-c2cc3c(CC(C)C)nccc3[nH]c2=O)no1` [Example 20]: the IC50 at benzodiazepine receptor is 2.77 nM. Also, the “TBPS binding Variation Rate” value in test [1] is recorded as -13%.

As for `CCc1nc(-c2cc3c(C4CCC4)nccc3[nH]c2=O)no1` [Example 21], on benzodiazepine receptor, the IC50 was 4.21 nM. Moreover, the “TBPS binding Variation Rate” value in test [1] came to 21%.

For the molecule `CCc1nc(-c2cc3c(C4CCCCC4)nccc3[nH]c2=O)no1` [Example 23], at benzodiazepine receptor, the IC50 worked out at 1.76 nM. Moreover, in test [1], the “TBPS binding Variation Rate” value was -23%.

Consider `CCc1nc(-c2cc3c(CC4CCCCC4)nccc3[nH]c2=O)no1` [Example 24], for which, on benzodiazepine receptor, the IC50 stood at 4.47 nM. In addition, the “TBPS binding Variation Rate” value in test [1] is recorded as 22%.

On to `CCCc1nc(-c2cc3c(C(C)C)nccc3[nH]c2=O)no1` [Example 36], for which the “TBPS binding Variation Rate” value in test [1] stood at 15%.

With `CCCc1nc(-c2cc3c(-c4ccccc4)nccc3[nH]c2=O)no1` [Example 38], at benzodiazepine receptor, the IC50 came out at 1.31 nM. The “TBPS binding Variation Rate” value in test [1] came to 25%.

Turning to `CC(C)c1nc(-c2cc3c(C(C)C)nccc3[nH]c2=O)no1` [Example 43], in test [1], the “TBPS binding Variation Rate” value worked out at 28%.

For the molecule `CC(C)c1nc(-c2cc3c(-c4ccccc4)nccc3[nH]c2=O)no1` [Example 45], on benzodiazepine receptor, the IC50 worked out at 0.96 nM. Moreover, in test [1], the “TBPS binding Variation Rate” value is reported as -9%.

Turning to `CC(C)c1nc(-c2cc3c(-c4ccc(F)cc4)nccc3[nH]c2=O)no1` [Example 47], the IC50 at benzodiazepine receptor was determined as 2.33 nM. Further, the “TBPS binding Variation Rate” value in test [1] is on record as -11%.

Consider `CCc1nccc2[nH]c(=O)c(-c3noc(C4CC4)n3)cc12` [Example 48], for which, on benzodiazepine receptor, the IC50 stood at 1.49 nM. Moreover, in test [1], the “TBPS binding Variation Rate” value was determined as 18%.

For `CC(C)c1nccc2[nH]c(=O)c(-c3noc(C4CC4)n3)cc12` [Example 50], the IC50 on benzodiazepine receptor was 0.88 nM. Besides, the “TBPS binding Variation Rate” value in test [1] was found to be 40%.

Take `O=c1[nH]c2ccnc(-c3ccccc3)c2cc1-c1noc(C2CC2)n1` [Example 52]: at benzodiazepine receptor, the IC50 is 0.74 nM. In addition, the “TBPS binding Variation Rate” value in test [1] is on record as -11%.

As to `O=c1[nH]c2ccnc(-c3cccc(Cl)c3)c2cc1-c1noc(C2CC2)n1` [Example 55], the IC50 on benzodiazepine receptor was 1.66 nM. In test [1], the “TBPS binding Variation Rate” value was -16%.

`Cc1ccc(-c2nccc3[nH]c(=O)c(-c4noc(C5CC5)n4)cc23)cc1` [Example 58]: at benzodiazepine receptor, the IC50 was 1.52 nM. The “TBPS binding Variation Rate” value in test [1] was -15%.

Take `Cc1nc(-c2cc3c(-c4ccccc4F)nccc3[nH]c2=O)no1` [Example 87]: the IC50 at benzodiazepine receptor worked out at 2.35 nM. Moreover, in test [1], the “TBPS binding Variation Rate” value stood at 32%.

As for `Cc1nc(-c2cc3c(-c4ccco4)nccc3[nH]c2=O)no1` [Example 91], the IC50 on benzodiazepine receptor is 0.61 nM. Further, the “TBPS binding Variation Rate” value in test [1] is listed as 38%.

Take `Cc1nc(-c2cc3c(-c4cccs4)nccc3[nH]c2=O)no1` [Example 92]: the IC50 at benzodiazepine receptor is 0.75 nM. Also, in test [1], the “TBPS binding Variation Rate” value turned out to be 32%.

In the case of `Cc1nc(-c2cc3c(-c4ccsc4)nccc3[nH]c2=O)no1` [Example 93], the IC50 on benzodiazepine receptor was determined as 1.75 nM. Moreover, in test [1], the “TBPS binding Variation Rate” value is 34%.

For the molecule `CCc1nc(-c2cc3c(-c4ccccc4F)nccc3[nH]c2=O)no1` [Example 95], at benzodiazepine receptor, the IC50 was 1.09 nM. Also, the “TBPS binding Variation Rate” value in test [1] amounted to 13%.

On to `CCc1nc(-c2cc3c(-c4ccccc4Cl)nccc3[nH]c2=O)no1` [Example 96], for which, on benzodiazepine receptor, the IC50 was determined as 2.82 nM. Further, the “TBPS binding Variation Rate” value in test [1] is reported as 16%.

Turning to `CCc1nc(-c2cc3c(-c4cccc5ccccc45)nccc3[nH]c2=O)no1` [Example 100], the IC50 on benzodiazepine receptor was 1.31 nM. Also, the “TBPS binding Variation Rate” value in test [1] is reported as -23%.

Take `CCc1nc(-c2cc3c(-c4cccnc4)nccc3[nH]c2=O)no1` [Example 106]: the IC50 at benzodiazepine receptor came out at 1.96 nM. The “TBPS binding Variation Rate” value in test [1] was 20%.

Consider `CCc1nc(-c2cc3c(-c4ccncc4)nccc3[nH]c2=O)no1` [Example 107], for which, on benzodiazepine receptor, the IC50 was 6.56 nM. Moreover, in test [1], the “TBPS binding Variation Rate” value is 17%.

As to `O=c1[nH]c2ccnc(-c3ccsc3)c2cc1-c1noc(C2CC2)n1` [Example 123], the IC50 at benzodiazepine receptor was 1.12 nM. For the same molecule, the “TBPS binding Variation Rate” value in test [1] worked out at 12%.

`Cc1noc(-c2cc3c(-c4ccccc4)nccc3[nH]c2=O)n1` [Example 175]: the IC50 at benzodiazepine receptor stood at 1.21 nM. Besides, the “TBPS binding Variation Rate” value in test [1] worked out at 28%.

For `Cc1noc(-c2cc3c(-c4ccccc4F)nccc3[nH]c2=O)n1` [Example 176], the IC50 on benzodiazepine receptor is 2.13 nM. In addition, in test [1], the “TBPS binding Variation Rate” value was determined as 39%.

For `Cc1noc(-c2cc3c(-c4cccc(F)c4)nccc3[nH]c2=O)n1` [Example 177], the “TBPS binding Variation Rate” value in test [1] is 29%.

On to `Cc1noc(-c2cc3c(-c4ccc(F)cc4)nccc3[nH]c2=O)n1` [Example 178], for which, on benzodiazepine receptor, the IC50 was 2.31 nM. In addition, in test [1], the “TBPS binding Variation Rate” value turned out to be 25%.

On to `Cc1noc(-c2cc3c(-c4ccccc4Cl)nccc3[nH]c2=O)n1` [Example 179], for which the IC50 on benzodiazepine receptor came out at 4.73 nM. Besides, the “TBPS binding Variation Rate” value in test [1] came to 37%.

`Cc1noc(-c2cc3c(-c4cccc(Cl)c4)nccc3[nH]c2=O)n1` [Example 180]: the IC50 at benzodiazepine receptor came to 1.22 nM. Further, in test [1], the “TBPS binding Variation Rate” value is on record as 13%.

As for `Cc1noc(-c2cc3c(-c4ccc(Cl)cc4)nccc3[nH]c2=O)n1` [Example 181], the “TBPS binding Variation Rate” value in test [1] was 13%.

In the case of `COc1ccccc1-c1nccc2[nH]c(=O)c(-c3nc(C)no3)cc12` [Example 185], in test [1], the “TBPS binding Variation Rate” value is 19%.

`COc1ccc(-c2nccc3[nH]c(=O)c(-c4nc(C)no4)cc23)cc1` [Example 187]: the IC50 at benzodiazepine receptor stood at 6.42 nM. The “TBPS binding Variation Rate” value in test [1] is listed as 27%.

Take `Cc1noc(-c2cc3c(-c4ccco4)nccc3[nH]c2=O)n1` [Example 188]: the IC50 at benzodiazepine receptor stood at 1.2 nM. In test [1], the “TBPS binding Variation Rate” value is 34%.

As for `Cc1noc(-c2cc3c(-c4cccs4)nccc3[nH]c2=O)n1` [Example 189], the IC50 on benzodiazepine receptor was 0.84 nM. Further, in test [1], the “TBPS binding Variation Rate” value was 29%.

Take `Cc1noc(-c2cc3c(-c4ccsc4)nccc3[nH]c2=O)n1` [Example 190]: at benzodiazepine receptor, the IC50 amounted to 1.57 nM. Besides, the “TBPS binding Variation Rate” value in test [1] is 34%.

`CCc1noc(-c2cc3c(C(C)C)nccc3[nH]c2=O)n1` [Example 193]: the IC50 on benzodiazepine receptor was 4.1 nM. For the same molecule, the “TBPS binding Variation Rate” value in test [1] worked out at 44%.

`CCc1noc(-c2cc3c(C4CC4)nccc3[nH]c2=O)n1` [Example 194]: the IC50 on benzodiazepine receptor is 1.06 nM. Moreover, the “TBPS binding Variation Rate” value in test [1] is 32%.

For `CCc1noc(-c2cc3c(CC(C)C)nccc3[nH]c2=O)n1` [Example 196], at benzodiazepine receptor, the IC50 came out at 4.6 nM. For the same molecule, the “TBPS binding Variation Rate” value in test [1] was -9%.

For `CCc1noc(-c2cc3c(-c4ccccc4)nccc3[nH]c2=O)n1` [Example 198], at benzodiazepine receptor, the IC50 amounted to 1.03 nM. Also, the “TBPS binding Variation Rate” value in test [1] is reported as 11%.

Turning to `CCc1noc(-c2cc3c(-c4ccccc4Cl)nccc3[nH]c2=O)n1` [Example 202], at benzodiazepine receptor, the IC50 stood at 2.09 nM. In addition, the “TBPS binding Variation Rate” value in test [1] is listed as 22%.

With `CCc1noc(-c2cc3c(-c4cccc(Cl)c4)nccc3[nH]c2=O)n1` [Example 203], the IC50 at benzodiazepine receptor was determined as 1.97 nM. For the same molecule, in test [1], the “TBPS binding Variation Rate” value was determined as 17%.

`CCc1noc(-c2cc3c(-c4cccc(C)c4)nccc3[nH]c2=O)n1` [Example 206]: the 50% inhibitory concentration (IC50) on benzodiazepine receptor was 1.16 nM. Also, the “TBPS binding Variation Rate” value in test [1] is recorded as -13%.

With `CCc1noc(-c2cc3c(-c4ccco4)nccc3[nH]c2=O)n1` [Example 211], the IC50 on benzodiazepine receptor was found to be 0.82 nM. Also, the “TBPS binding Variation Rate” value in test [1] turned out to be 24%.

On to `CCc1noc(-c2cc3c(-c4ccsc4)nccc3[nH]c2=O)n1` [Example 212], for which, at benzodiazepine receptor, the IC50 was determined as 1.26 nM. In addition, the “TBPS binding Variation Rate” value in test [1] is 27%.

With `CC(C)c1noc(-c2cc3c(C4CC4)nccc3[nH]c2=O)n1` [Example 224], the IC50 on benzodiazepine receptor was 3.57 nM. The “TBPS binding Variation Rate” value in test [1] is -12%.

In the case of `CC(C)c1noc(-c2cc3c(-c4ccc(F)cc4)nccc3[nH]c2=O)n1` [Example 228], the IC50 at benzodiazepine receptor was found to be 1.59 nM. Further, the “TBPS binding Variation Rate” value in test [1] is -10%.
